Entries after “also recorded” stand apart in the source; their conditions may differ.
Columns and labels:
[1] = test system: various human cancer cells; assay: In vitro radiosensitizing effects in various human cancer cells (FIG. 14-21); format: cell-based; conditions: 12 hr treatment, then various doses of 225 keV X-ray
Text: (§1) Dibromo-diamino-benzene (Dibromo-phenylenediamine, Compound B) was obtained from TCI—America. Diiodo-diaminobenzene (Compound C) were synthesized, purified and crystallized in our laboratory, and the structures and purity were examined by NMR and mass spectrometry. MEM and fetal bovine serum (FBS), penicillin G and streptomycin were obtained from Hyclone Laboratories (UT, USA). Stock solution of cisplatin was freshly prepared in ultrapure water or saline, and stock solutions of Compounds A, B, C, D were prepared in pure ethanol, where the final concentration of ethanol was ≦1% when treated to cells.
A human skin diploid fibroblast (GM05757 cell line) was obtained from the Coriell Cell Repository directly, while the human cervical cancer cell line (HeLa, ATCC#: CCL-2; or ME-180), human ovarian cancer cell line (NIH:OVCAR-3, ATCC#: HTB-161) and human lung cancer cell line (A549, ATCC#: CCL-185™), together with RPMI 1640, F-12K, McCoy's 5 A and L-15 culture media, were obtained from the American Type Culture Collection (ATCC) directly. Fetal bovine serum (FBS) was obtained from Hyclone Laboratories (UT, USA). The GM05757 normal cells and HeLa cells were cultivated with MEM (Hyclone) supplemented with 10% FBS, 100 units/mL penicillin G and 100 μg/mL streptomycin (Hyclone). The complete growth media for ME-180, NIH:OVCAR-3, A549 and MDA-MB-231 cells were the ATCC-formulated McCoy's 5 A Medium supplemented with 10% FBS, RPMI 1640 medium with 20%, F-12K medium with 10% FBS, and L-15 Medium (Leibovitz) with 10% FBS, respectively. The cells were maintained at 37° C. in a humidified atmosphere containing 5% CO2.
(§2) The radiosensitizing effects of RSCs on cell viability were determined by the 3-[4,5-dimethylthiazol-2-yl]-2,5-diphenyl tetrazoliumbromide (MTT) assay. Cells were cultured in 96-well plates (5×10^3 cells/well) for 24 h. The culture medium was replaced by fresh culture medium and incubated for 12 h with varying drug concentrations. The cells were then irradiated by 225 kV X-ray (PRECISION X-RAD IR 225) at a dose rate of 2 Gy/min with various X-ray doses. After irradiation, the cells were incubated for 6 days. The MTT assay of cell viability was then conducted. Briefly, 100 μl new medium without phenol red containing 1.2 mM MTT (sigma) (i.e., adding 10 μl 12 mM MTT stock solution in PBS) were added to each well and incubated for 4 h. The medium was then removed, and the formazan crystals solubilized by 100 μL/well DMSO (or alternatively by 100 μl/well SDS and incubated for another 4 h). The surviving fraction was determined by measuring the absorbance at 540 nm (570 nm for SDS solubilization) using a Multiskan Spectrum UV/Vis microplate reader (Thermo Scientific), which is directly proportional to the number of viable cells.

[2] = test system: human normal cells (GM05757); assay: In vitro toxicity in human normal cells, 72-hr treatment, MTT assay; format: cell-based; conditions: GM05757, 72-hr treatment, without ionizing radiation, 0-50 μM cisplatin, 0-200 μM compounds
Text: as §1, with “TCI-America.” for “TCI—America.”
A human skin diploid fibroblast (GM05757 cell line) was obtained from the Coriell Cell Repository directly. Fetal bovine serum (FBS) was obtained from Hyclone Laboratories (UT, USA). The GM05757 normal cells were cultivated with MEM (Hyclone) supplemented with 10% FBS, 100 units/mL penicillin G and 100 μg/mL streptomycin (Hyclone). The cells were maintained at 37° C. in a humidified atmosphere containing 5% CO2.
as §2, with “for 72” for “for 12”, “concentrations.” for “concentrations. The cells were then irradiated by 225 kV X-ray (PRECISION X-RAD IR 225) at a dose rate of 2 Gy/min with various X-ray doses. After irradiation, the cells were incubated for 6 days.”

Nc1cc(Br)c(Br)cc1N [Compound B, 4,5-dibromo-1,2-phenylenediamine]
killing of cancer cells in combination with radiation [1]: enhanced the killing of cancer cells in a radiation dose dependent manner and in synergy with radiation; also recorded: enhances the effectiveness of ionizing radiation to kill tumor cells | toxicity toward human normal cells [2]: essentially no toxicity; also recorded: little toxicity up to 200 μM
